Reference: US20140023611A1 (priority 2010, published 2014)

Experiments:
rat NaP2b (SLC34A2) = molecular target: T1, rat NaP2b (SLC34A2) (Rattus norvegicus, UniProt Q9JJ09); test: Inhibition of NaP2b-mediated Pi (33P) uptake in transfected HEK293 cells, rat NaP2b; format: cell-based; conditions: 33P Pi uptake, 0.1 mM phosphate, value given as pIC50 range
T1 construct: host or cells: HEK293
T1 sequence (Q9JJ09 1-695): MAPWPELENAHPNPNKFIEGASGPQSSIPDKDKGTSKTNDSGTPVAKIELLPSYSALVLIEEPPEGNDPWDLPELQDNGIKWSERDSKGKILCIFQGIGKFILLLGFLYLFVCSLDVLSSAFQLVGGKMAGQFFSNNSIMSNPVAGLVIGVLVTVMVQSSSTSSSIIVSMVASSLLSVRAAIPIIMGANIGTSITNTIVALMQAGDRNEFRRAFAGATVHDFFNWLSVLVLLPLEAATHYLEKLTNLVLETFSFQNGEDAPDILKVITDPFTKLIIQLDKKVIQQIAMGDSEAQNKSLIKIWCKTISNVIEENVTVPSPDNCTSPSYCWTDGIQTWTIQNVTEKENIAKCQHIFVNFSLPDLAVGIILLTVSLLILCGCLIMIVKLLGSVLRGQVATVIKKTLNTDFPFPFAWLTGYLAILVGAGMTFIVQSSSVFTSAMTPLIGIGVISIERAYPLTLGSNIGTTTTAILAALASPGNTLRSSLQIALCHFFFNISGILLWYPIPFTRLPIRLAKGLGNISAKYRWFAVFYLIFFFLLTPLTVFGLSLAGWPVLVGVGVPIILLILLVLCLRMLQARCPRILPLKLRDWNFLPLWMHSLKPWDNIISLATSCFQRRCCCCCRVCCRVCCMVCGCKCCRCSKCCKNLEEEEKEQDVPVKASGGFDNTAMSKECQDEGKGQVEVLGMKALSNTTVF
Method in brief: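 HEK293 cells were transiently transfected with NaP2b cDNA using Lipofectamine and grown near confluence. Compounds were tested at twelve concentrations from 0.1 nM to 30 uM in duplicate, and 33P-phosphate uptake was counted by scintillation after lysis. Results are expressed as pIC50.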

[1] = Stability of compounds in simulated gastric fluid (SGF); format: in vitro ADME; conditions: simulated gastric fluid (3 mg/mL pepsin), incubation time 6 hr, relative to t=0
Protocol: (§1) Test compounds were incubated at […] in simulated gastric fluid (SGF; standard USP solution with 3 mg/mL pepsin) or simulated intestinal fluid (SIF; standard USP solution with 3 mg/mL pancreatin) for 3 hr or 6 hr. HPLC-UV or HPLC-MS were used to determine test compound levels using peak area %. Results (Table 14) were reported as the percentage of test compound remaining after incubation in a given condition relative to test compound present at t=0 in the same condition.

[2] = Stability of compounds in simulated intestinal fluid (SIF); format: in vitro ADME; conditions: simulated intestinal fluid (3 mg/mL pancreatin), incubation time 6 hr, relative to t=0
Protocol: as §1

[3] = Determination of compound Cmax and AUC after oral gavage (plasma LC-MS/MS); format: in vivo, Sprague-Dawley rats; conditions: Sprague-Dawley, rat, plasma, po, Structure (I) examples, Table 15, actual oral dose 3-15 mg/kg, plasma 0.5-4 h
Method in brief: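 Sprague-Dawley rats dosed by oral gavage at nominal 2.5 or 10 mg/kg; blood drawn at 0.5, 1, 2 and 4 h into K2EDTA. Plasma protein-precipitated with acetonitrile plus internal standard and analysed by LC-MS/MS against a plasma standard curve to derive Cmax and AUC.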

Row | IC50 (rat NaP2b (SLC34A2)) [µM] | % remaining, SGF [1] | % remaining, SIF [2] | AUC [3] [ng·h/mL] | Cmax [3] [ng/mL] | Structure (SMILES)
1 | < 1 | >80% | >80% | < 10 | < 10 | CCN(CC)c1ccc(NC(=O)c2cccc(CSCCOCCOCCOCCOCCC(=O)O)c2)c(-c2cc(C(=O)N[C@H]3CCCc4ccccc43)ccn2)c1 [Example 157, (S)-1-(3-(4-(diethylamino)-2-(4-(1,2,3,4-tetrahydronaphthalen-1-ylcarbamoyl)pyridin-2-yl)phenylcarbamoyl)phenyl)-5,8,11,14-tetraoxa-2-thiaheptadecan-17-oic acid]
2 | 1 to 7.94 | >80% | >80% | < 10 | < 10 | O=C(NCc1cccc(C(F)(F)F)c1)c1ccnc(-c2cc(N3CCCCC3)ccc2NC(=O)c2cccc(CSCCOCCOCCOCCOCCC(=O)N3CCN(CCOCCO)CC3)c2)c1 [Example 147]
3 | 1 to 7.94 | >80% | >80% | < 30 | < 10 | CCN(CC)c1ccc(NC(=O)c2cccc(CSCCOCCOCCOCCOCCC(=O)NCCOCCOCCOCCOCCOCCOCCOCCOC)c2)c(-c2cc(C(=O)N[C@H]3CCCc4ccccc43)ccn2)c1 [Example 157.1, (S)-2-(5-(diethylamino)-2-(3-(27-oxo-2,5,8,11,14,17,20,23,30,33,36,39-dodecaoxa-42-thia-26-azatritetracontan-43-yl)benzamido)phenyl)-N-(1,2,3,4-tetrahydronaphthalen-1-yl)isonicotinamide]
4 | 10 to 31.6 | >80% | >80% | < 30 | < 10 | CN(CCN1CCC[C@H]1C(=O)NCCOCCOCCOCCC(=O)O)C(=O)c1cccc(C(=O)Nc2ccc(N3CCCCC3)cc2-c2cc(C(=O)N[C@H]3CCCc4ccccc43)ccn2)c1 [Example 193, 1-((S)-1-(2-(N-methyl-3-((4-(piperidin-1-yl)-2-(4-(((S)-1,2,3,4-tetrahydronaphthalen-1-yl)carbamoyl)pyridin-2-yl)phenyl)carbamoyl)benzamido)ethyl)pyrrolidin-2-yl)-1-oxo-5,8,11-trioxa-2-azatetradecan-14-oic acid]
5 | 1 to 7.94 | >80% | >80% | < 10 | < 10 | COCCOCCOCCOCCOCCOCCOCCNC(=O)[C@H]1CCCN(C(=O)c2cccc(C(=O)Nc3ccc(N4CCCCC4)cc3-c3cc(C(=O)N[C@H]4CCCc5ccccc54)ccn3)c2)C1 [Example 256, 2-(2-(3-((S)-3-(2,5,8,11,14,17,20-heptaoxadocosan-22-ylcarbamoyl)piperidine-1-carbonyl)benzamido)-5-(piperidin-1-yl)phenyl)-N—((S)-1,2,3,4-tetrahydronaphthalen-1-yl)isonicotinamide]
6 | 1 to 7.94 | >80% | >80% | < 10 | < 10 | COCCOCCOCCOCCOCCOCCOCCOCCNC(=O)CCOCCOCCOCCOCCSCc1cccc(C(=O)Nc2ccc(N3CCCCC3)cc2-c2cc(C(=O)NCc3cccc(C(F)(F)F)c3)ccn2)c1 [Example 148, 2-(2-(3-(27-oxo-2,5,8,11,14,17,20,23,30,33,36,39-dodecaoxa-42-thia-26-azatritetracontan-43-yl)benzamido)-5-(piperidin-1-yl)phenyl)-N-(3-(trifluoromethyl)benzyl)isonicotinamide]
7 | 1 to 7.94 | >80% | >80% | < 10 | < 10 | CN(CC(=O)N1CCN(CCOCCO)CC1)C(=O)c1cccc(C(=O)Nc2ccc(N3CCCCC3)cc2-c2cc(C(=O)N[C@H]3CCCc4ccccc43)ccn2)c1 [Example 246, (S)—N1-(2-(4-(2-(2-hydroxyethoxy)ethyl)piperazin-1-yl)-2-oxoethyl)-N1-methyl-N3-(4-(piperidin-1-yl)-2-(4-(1,2,3,4-tetrahydronaphthalen-1-ylcarbamoyl)pyridin-2-yl)phenyl)isophthalamide]
8 | 1 to 7.94 | >80% | >80% | < 10 | < 10 | CN(CCOCCOCCOCCC(=O)N1CCN(CCOCCO)CC1)C(=O)c1cccc(C(=O)Nc2ccc(N3CCCCC3)cc2-c2cc(C(=O)N[C@H]3CCCc4ccccc43)ccn2)c1 [Example 250, 1-N-(2-{2-[2-(3-{4-[2-(2-hydroxyethoxy)ethyl]piperazin-1-yl}-3-oxopropoxy)ethoxy]ethoxy}ethyl)-1-N-methyl-3-N-[4-(piperidin-1-yl)-2-(4-{[(1S)-1,2,3,4-tetrahydronaphthalen-1-yl]carbamoyl}pyridin-2-yl)phenyl]benzene-1,3-dicarboxamide]
9 | 1 to 7.94 | >80% | 40-60% | < 10 | < 10 | O=C(NCc1cccc(C(F)(F)F)c1)c1ccnc(-c2cc(N3CCCCC3)ccc2NC(=O)c2cccc(CSCCOCCOCCOCCOCCC(=O)N(CCO)CCO)c2)c1 [Example 151, 2-(2-(3-(20-hydroxy-18-(2-hydroxyethyl)-17-oxo-5,8,11,14-tetraoxa-2-thia-18-azaicosyl)benzamido)-5-(piperidin-1-yl)phenyl)-N-(3-(trifluoromethyl)benzyl)isonicotinamide]
10 | 1 to 7.94 | >80% | >80% | < 10 | < 10 | CN(CCN1CCCC[C@H]1C(=O)N(C)CCOCCOCCOCCC(=O)OC(C)(C)C)C(=O)c1cccc(C(=O)Nc2ccc(N3CCCCC3)cc2-c2cc(C(=O)N[C@H]3CCCc4ccccc43)ccn2)c1 [Example 240, tert-butyl 2-methyl-1-((S)-1-(2-(N-methyl-3-(4-(piperidin-1-yl)-2-(4-((S)-1,2,3,4-tetrahydronaphthalen-1-ylcarbamoyl)pyridin-2-yl)phenylcarbamoyl)benzamido)ethyl)piperidin-2-yl)-1-oxo-5,8,11-trioxa-2-azatetradecan-14-oate]
11 |  | >80% | >80% | < 10 | < 10 | CCN(CC)c1ccc(NC(=O)c2cccc(C(=O)N(C)CCN3CCCN(C(=O)OCCOCCOCCOCCOCCOCCOCCOCCOCCOCCOCCOC)CC3)c2)c(-c2cc(C(=O)N[C@H]3CCCc4ccccc43)ccn2)c1 [Example 199, (S)-2,5,8,11,14,17,20,23,26,29,32-undecaoxatetratriacontan-34-yl 4-(2-(3-((4-(diethylamino)-2-(4-((1,2,3,4-tetrahydronaphthalen-1-yl)carbamoyl)pyridin-2-yl)phenyl)carbamoyl)-N-methylbenzamido)ethyl)-1,4-diazepane-1-carboxylate]
12 | < 1 | >80% | >80% |  |  | CN(CCOCCOCCOCCC(=O)O)C(=O)Cc1cccc(SCc2cccc(C(=O)Nc3ccc(N4CCCCC4)cc3-c3cc(C(=O)N[C@H]4CCCc5ccccc54)ccn3)c2)c1 [Example 235, (S)-3-methyl-2-oxo-1-(3-(3-(4-(piperidin-1-yl)-2-(4-(1,2,3,4-tetrahydronaphthalen-1-ylcarbamoyl)pyridin-2-yl)phenylcarbamoyl)benzylthio)phenyl)-6,9,12-trioxa-3-azapentadecan-15-oic acid]

Row | Structure (SMILES) | IC50 (rat NaP2b (SLC34A2)) [µM] | % remaining, SGF [1] | % remaining, SIF [2] | AUC [3] [ng·h/mL] | Cmax [3] [ng/mL]
13 | O=C(O)CCOCCOCCOCCOCCCc1cccc(C(=O)Nc2ccc(OC3CCC3)cc2-c2cc(C(=O)N[C@H]3CCCc4ccccc43)ccn2)c1 [Example 285, (S)-16-(3-((4-cyclobutoxy-2-(4-((1,2,3,4-tetrahydronaphthalen-1-yl)carbamoyl)pyridin-2-yl)phenyl)carbamoyl)phenyl)-4,7,10,13-tetraoxahexadecan-1-oic acid] | < 1 | 60-80% | >80% | < 50 | < 30
